# Assay results published in patent publication US7291601B1, “Arginine-rich anti-vascular endothelial growth factor peptides that inhibit growth and metastasis of human tumor cells by blocking angiogenesis” (Korea Greencross Corp., priority 1999, dated 2007).
# “Also recorded” adds a separate entry of the source.
# Tests used:
# [1] = Acute toxicity test on rat upon non-oral administration; assay type: in vivo; conditions: 1 mg/kg, intramuscular injection; for LD50: rat, in vivo, im, SD rats, read-out: lethal dose (LD50)
# Experimental: Using specific pathogen-free (SPF) SD rats which were six weeks old, the peptides of Sequences 1, 2, and 3 were tested for acute toxicity. Suspensions of the peptides in 1 ml of PBS were administered at a dose of 1 mg/kg to the rats, which were grouped in twos, by intramuscular injection. […] An autopsy was made of the rats with the naked eye to observe whether their abdominal and thoracic organs were damaged. Neither sudden death nor noticeable clinical symptoms were detected in any of the animals administered with the peptides of interest.
# [2] = test system: human fibro-sarcoma cells; test: Viability of human fibro-sarcoma cells (tetrazolium dye); assay type: cell-based; conditions: 3 days incubation, various concentrations
# Experimental: The following experiment was carried out to determine whether peptides antagonistic to VEGF have direct influence on the growth of human fibro-sarcoma cells. After being cultured for one day in a 96-well plate (Nunc), the cancer cells were added with DMEM containing various concentrations of the screened peptides and incubated. To the cells remaining alive after 3 days of incubation, 20 μl of tetrazolium dye (Cell Titer 96 Non-Radioactive Proliferation assay kit, Promega) was added, followed by incubation at 37° C. for 4 hours. The formazan produced by the viable cells was dissolved in 0.2 ml of dimethyl sulfoxide (DMSO) quantified by the absorbance at 570 nm. The absorbance attributed to formazan is proportional to living cells.
# [3] = test system: HT1080 (human fibrosarcoma); test: Egg CAM assay, angiogenesis induced by VEGF-secreting cancer cells; assay type: in vivo; conditions: for effect on angiogenesis induced by VEGF secreted from human cancer cells: FIG. 12; for Angiogenic activity eggs/total eggs / Angiogenic activity(%): egg CAM, 10^5 HT1080 cells/egg with 0.1 μg peptide; for Angiogenic activity(%): (standard deviation)
# Experimental: An experiment using egg CAM was carried out to confirm the inhibitory activity of the screened peptides against the angiogenesis induced by cancer cells, which secrete VEGF. Fertilized eggs were deprived of albumin and windows were formed on the eggs as in above. 10^5 cells of HT1080 (human fibrosarcoma) were mixed with 7.5 μg of Type I collagen (rat tail, Beckton Dickinson, USA) within a volume of 5 μl and dropped onto ¼ fraction pieces of Thermanox coverslips to give collagen sponges. After being covered with the collagen sponges, 10-day embryonic egg CAM was incubated at 37° C. for 3 days. Blood vessels induced by the cancer cells were observed and photographed as in above (see Table 6 and FIG. 12).
# rabbit corneal domes = test: Rabbit corneal dome angiogenesis induced by VEGF; assay type: in vivo; conditions: VEGF 10 ng with 1 μg peptide, 16 days after operation; listed as Sequence 1
# Experimental: To confirm the test results obtained from egg CAM, an experiment was performed using rabbit corneal domes for in vivo angiogenesis testing. New Zealand male rabbits weighing 3 kg (SLC, Japan) were subjected to intramuscular ketamine anesthesia (44 mg/kg), followed by dissecting the corneal domes to a length of 3 mm by use of an operating knife (Bard-Parker—#11). […] 16 days after the operation, angiogenesis was obviously observed and photographs were taken of blood vessels newly formed in the corneal dome (Nikon, FS-2, Japan).
# VEGF8-109 = target: T1, VEGF8-109 (Homo sapiens, UniProt P15692); test: Inhibition of labeled VEGF8-109 binding to its receptors; conditions: FIG. 9
# T1 construct: made in house; host or cells: E. coli BL21(DE3)pLysS, inclusion bodies
# T1 sequence (P15692 214-315): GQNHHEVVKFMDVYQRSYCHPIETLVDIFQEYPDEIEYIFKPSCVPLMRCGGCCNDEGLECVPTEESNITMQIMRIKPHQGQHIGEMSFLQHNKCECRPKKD
# Description: (§1) In order to verify this postulation, Sequence 1 (RRKRRR) was examined for the common binding domain on VEGF because it inhibited the binding of VEGF to its receptors at the highest efficiency. First, appropriate primers were synthesized and used to amplify various cDNAs coding for VEGF165, VEGF121, VEFG8-121, VEGF109, and VEGF8-109 while a human liver cDNA library (Clontech) served as a template. After being inserted to plasmid pRSET A (Invitrogen), the cDNAs were sequenced. The resulting five pRSET A vectors, each having one of the five cDNAs, were introduced into an expression strain (BL21(DE3)pLysS) containing T7 RNA polymerase. […] The purified VEGFs were quantified by use of a protein assay reagent (Bio-Rad) and all found to bind to VEGF receptors and exert growth hormone activity on HUVEC. […] For use, each labeled protein was quantified by ELISA (enzyme-linked immunosorbent assay) using a mouse monoclonal anti-VEGF antibody (R&D systems).
# (§2) Each peptide was examined for antagonistic activity against VEGF in the same manner as in Example 2. Referring to FIG. 9, the radioactivity measured from ^125I-labeled VEGF associated with fixed Sequence 1 (RRKRRR) (SEQ ID NO: 1) is plotted in the absence of competitors and in the presence of competitors for various VEGF isomers. […]
# VEGF109 = target: T2, VEGF109 (Homo sapiens, UniProt P15692); test: Inhibition of labeled VEGF109 binding to its receptors; conditions: FIG. 9
# T2 construct: made in house; host or cells: E. coli BL21(DE3)pLysS, inclusion bodies
# T2 sequence (P15692 27-135 isoform P15692-4): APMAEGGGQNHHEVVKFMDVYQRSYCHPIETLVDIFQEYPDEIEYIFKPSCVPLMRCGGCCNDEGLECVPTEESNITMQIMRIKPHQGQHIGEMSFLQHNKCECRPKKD
# Description: as §1, §2
# [4] = test system: HM7 (human colon carcinoma cell line); test: Subcutaneous HM7 tumor growth in athymic nude mice; assay type: in vivo; conditions: after 15 days of subcutaneous injection
# Experimental: From the next day, a solution of each peptide in PBS (0.5 μg/100 μl/day) was subcutaneously injected to the mice for 15 days. Sizes of the tumors thus formed were periodically measured while tumor volumes were calculated according to the following formula: Tumor Size=0.5×(Diameter)^2×length
Compound,toxic changes to the rats [1],LD50 [1] [mg/kg],direct influence on growth / viability of human fibro-sarcoma cells ([2]; listed as SEQ ID NO: 3),direct influence on growth / viability of human fibro-sarcoma cells ([2]; listed as Sequence 3),effect on angiogenesis induced by VEGF secreted from human cancer cells [3],Angiogenic activity eggs/total eggs [3],Angiogenic activity(%) [3],direct influence on growth / viability of human fibro-sarcoma cells ([2]; listed as SEQ ID NO: 2),direct influence on growth / viability of human fibro-sarcoma cells ([2]; listed as Sequence 2),VEGF-induced angiogenesis in the rabbit corneal dome (rabbit corneal domes),inhibition of binding of VEGF8-109 to its receptors (VEGF8-109),inhibition of binding of VEGF109 to its receptors (VEGF109),effect on tumor size / growth of human colon carcinoma cells in mice [4],decrease of tumor size compared to the control (PBS) ([4]; 0.5 μg/100 μl/day),direct influence on growth / viability of human fibro-sarcoma cells ([2]; listed as SEQ ID NO: 1),direct influence on growth / viability of human fibro-sarcoma cells ([2]; listed as Sequence 1)
"N=C(N)NCCC[C@H](NC(=O)[C@H](CCCNC(=N)N)NC(=O)[C@H](CCCNC(=N)N)NC(=O)[C@H](CCCNC(=N)N)NC(=O)[C@H](CCCNC(=N)N)NC(=O)[C@@H](N)CCCNC(=N)N)C(N)=O [compound 11, NH2-Arg-Arg-Arg-Arg-Arg-Arg-CONH2]",no toxic changes,≥ 1,no direct influence on human fibro sarcoma cells,damage neither,inhibitory effect,10/24,41.0(7.1) %,,,,,,,,,
"H-RKKRKR-NH2 [compound 1, NH2-Arg-Lys-Lys-Arg-Lys-Arg-CONH2]",no toxic changes,≥ 1,,,inhibitory effect,10/23,43.0(9.9) %,no direct influence on human fibro sarcoma cells,damage neither,,,,,,,
"H-RRKRRR-NH2 [compound 8, NH2-Arg-Arg-Lys-Arg-Arg-Arg-CONH2]",no toxic changes,≥ 1,,,inhibitory effect,8/22,36.0(8.5) %,,,completely inhibited; also recorded: anti-angiogenic effect,not inhibited,not inhibited,effectively inhibits the growth of human colon carcinoma cells in mice,about 28%,no direct influence on human fibro sarcoma cells,damage neither
